Measurements: paper PMC13544220, “Glycemic and bodyweight effects of GIPR coding variation reflect differences in surface expression and intrinsic functional impairment” (Science Advances, 2026)

Legend:
Type in all cases: cell-based, human
[1] = tested on: wild-type and variant SNAP-GIPR; test: Constitutive and agonist-mediated internalization, reversible SNAP-tag labelling, AD293 cells; settings: 100 nM GIP
Method in brief: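 Percentage internalization is read as the fraction of specific SNAP fluorescence that survives Mesna stripping, compared with the image taken before Mesna. Wells are imaged in TNE buffer at pH 8.6 and again after 10 min.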

[2] = tested on: wild-type and variant SNAP-GIPR; test: Single-concentration GIP cAMP response by HTRF in AD293 cells; settings: for HTRF cAMP: 100 nM GIP, AD293, 30 min, mean, n=8
Experimental: All variants were tested in parallel on each occasion to control for transfection efficiency differences between experiments.

[3] = tested on: wild-type and variant SNAP-GIPR; test: cADDis cAMP imaging in AD293 cells, ensemble, expression-matched and per decile
Method in brief: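 Surface GIPR and cAMP are measured in individual AD293 cells coexpressing SNAP-tagged receptor and the green cADDis biosensor, imaged live at 37°C. Responses are reported ensemble, expression-matched against wild-type deciles with extremes trimmed, or within each variant's own surface deciles.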

CC[C@H](C)[C@H](NC(=O)[C@H](CO)NC(=O)[C@H](Cc1ccc(O)cc1)NC(=O)[C@H](CC(=O)O)NC(=O)[C@H](CO)NC(=O)[C@@H](NC(=O)[C@H](Cc1ccccc1)NC(=O)[C@@H](NC(=O)CNC(=O)[C@H](CCC(=O)O)NC(=O)[C@H](C)NC(=O)[C@@H](N)Cc1ccc(O)cc1)[C@@H](C)O)[C@@H](C)CC)C(=O)N[C@@H](C)C(=O)N[C@@H](CCSC)C(=O)N[C@@H](CC(=O)O)C(=O)N[C@@H](CCCCN)C(=O)N[C@H](C(=O)N[C@@H](Cc1c[nH]cn1)C(=O)N[C@@H](CCC(N)=O)C(=O)N[C@@H](CCC(N)=O)C(=O)N[C@@H](CC(=O)O)C(=O)N[C@@H](Cc1ccccc1)C(=O)N[C@H](C(=O)N[C@@H](CC(N)=O)C(=O)N[C@@H](Cc1c[nH]c2ccccc12)C(=O)N[C@@H](CC(C)C)C(=O)N[C@@H](CC(C)C)C(=O)N[C@@H](C)C(=O)N[C@@H](CCC(N)=O)C(=O)N[C@@H](CCCCN)C(=O)NCC(=O)N[C@@H](CCCCN)C(=O)N[C@@H](CCCCN)C(=O)N[C@@H](CC(N)=O)C(=O)N[C@@H](CC(=O)O)C(=O)N[C@@H](Cc1c[nH]c2ccccc12)C(=O)N[C@@H](CCCCN)C(=O)N[C@@H](Cc1c[nH]cn1)C(=O)N[C@@H](CC(N)=O)C(=O)N[C@H](C(=O)N[C@H](C(=O)N[C@@H](CCC(N)=O)C(=O)O)[C@@H](C)O)[C@@H](C)CC)C(C)C)[C@@H](C)CC [GIP, glucose-dependent insulinotropic polypeptide, reference compound]
GIP-induced increase in internalization ([1]; R190Q, R101H, E288G, D66G, R183Q, either/both AD293 and INS-1): statistically significant reductions in internalization | internalization ([1]; most variants, AD293 and INS-1): wild type–like internalization | HTRF cAMP ([2]; A207V): 1.3964 vs. experimental average | HTRF cAMP ([2]; A268V): 1.283 vs. experimental average | cAMP response ([2]; AD293, 100 pM GIP, E252D and A268V): GoF cAMP responses | cAMP response ([2]; AD293, 100 pM GIP, E354Q): increased response | cAMP response ([2]; AD293, 100 pM GIP, R136W and R131S): reduced cAMP response | cAMP response ([2]; AD293, 100 pM and 100 nM GIP, 10 variants with lowest surface expression): reduced cAMP responses | cAMP response at higher concentration ([2]; AD293, 100 nM GIP, S64A, R217L, L262H): at least a partially restored response | HTRF cAMP ([2]; D66G): 0.328 vs. experimental average | HTRF cAMP ([2]; E252D): 1.787 vs. experimental average | HTRF cAMP ([2]; E288G): 0.3648 vs. experimental average | HTRF cAMP ([2]; E354Q): 1.4229 vs. experimental average | HTRF cAMP ([2]; E463Q): 1.311 vs. experimental average | HTRF cAMP ([2]; G438S): 1.655 vs. experimental average | HTRF cAMP ([2]; I378M): 1.479 vs. experimental average | HTRF cAMP ([2]; I403V): 1.595 vs. experimental average | HTRF cAMP ([2]; L100F): 1.598 vs. experimental average | HTRF cAMP ([2]; L262H): 1.14 vs. experimental average | HTRF cAMP ([2]; L262V): 1.331 vs. experimental average | HTRF cAMP ([2]; L304R): 0.7364 vs. experimental average | HTRF cAMP ([2]; R101H): 0.2474 vs. experimental average | HTRF cAMP ([2]; R131S): 1.306 vs. experimental average | HTRF cAMP ([2]; R136W): 1.324 vs. experimental average | HTRF cAMP ([2]; R183Q): 0.2411 vs. experimental average | HTRF cAMP ([2]; R190Q): 0.2205 vs. experimental average | HTRF cAMP ([2]; R196G): 1.594 vs. experimental average | HTRF cAMP ([2]; R217L): 1.142 vs. experimental average | HTRF cAMP ([2]; R300W): 1.632 vs. experimental average | HTRF cAMP ([2]; R336P): 1.143 vs. experimental average | HTRF cAMP ([2]; R341P): 0.1915 vs. experimental average | HTRF cAMP ([2]; R404H): 1.255 vs. experimental average | HTRF cAMP ([2]; S64A): 1.061 vs. experimental average | HTRF cAMP ([2]; S415G): 1.323 vs. experimental average | HTRF cAMP ([2]; S415I): 1.113 vs. experimental average | HTRF cAMP ([2]; S447T): 1.418 vs. experimental average | HTRF cAMP ([2]; T116R): 1.485 vs. experimental average | HTRF cAMP ([2]; WT): 1.495 vs. experimental average | cADDis cAMP response at low own expression ([3]; AD293, 100 pM GIP, E354Q (lesser extent A207V, E252D, A268V)): increased responses relative to the wild type | cADDis cAMP response, expression-matched ([3]; AD293, 100 pM GIP, R101H, S64A, R217L, L262H, L304R): at least partly restored to wild-type levels | cADDis cAMP response at highest own expression ([3]; AD293, 100 pM GIP, R136W, R131S, T116R, S64A): wild type–like responses | cADDis cAMP response, expression-matched ([3]; AD293, 100 pM GIP, all variants with reduced ensemble response): still showed LoF | cADDis cAMP response, expression-matched ([3]; AD293, 100 pM and 100 nM GIP, R183Q, R190Q, D66G, E288G): no rescue of function
